From patent US20250101052A1, “COMPOUND FOR EGFR KINASE INHIBITOR, COMPOSITION, AND USE THEREOF” (INNOVATION INSTITUTE FOR ARTIFICIAL INTELLIGENCE IN …, priority 2021, published 2025)
pIC50: −log10 of the molar value.

Experiments:
[1] = target: EGFR^L858R/T790M/C797S kinase (Homo sapiens (Human), UniProt P00533, C797S/L858R/T790M); experiment: EGFR^L858R/T790M/C797S kinase inhibitory activity experiment; type: biochemical; conditions: in vitro
Protocol: EGFRL^858R/T790M/C797S kinase inhibitory activity experiment: The compounds of the present invention have excellent in-vitro inhibitory activity against EGFR^L858R/T790M/C797S kinase
• Centrifuge (manufacturer: Eppendorf, model: 5430) • Microplate reader (manufacturer: Perkin Elmer, model: Caliper EZ ReaderII) • Echo 550 (manufacturer: Labcyte, model: Echo 550) • Experimental Method • Compound preparation: • A 10 mM storage solution was prepared.
(1) 1×Kinase buffer was prepared.
(2) Preparation of concentration gradient of compound: The tested compound has a test concentration starting from 1 μM, diluted 10 times, with 10 concentrations, and subjected to single-well or multi-well detection. The compound was diluted to a 100% DMSO solution with a final concentration of 100 times in a 384 source plate. […] of the compound at a final concentration of 100 times was transferred to the target plate 384-well-plate using the pipette Echo 550.
(3) A kinase solution with a final concentration of 2.5 times was prepared using 1× Kinase buffer.
(4) 10 μL of the kinase solution with the final concentration of 2.5 times was added to a compound well and a positive control well, respectively; 10 μL of 1×Kinase buffer was added to a negative control well.
(5) Centrifugation was conducted at 1000 rpm for 30 seconds, and the reaction plate was shaken and mixed well, and incubated at a room temperature for 10 minutes.
(6) A mixed solution of ATP with a final concentration of 5/3 times and Kinase substrate 22 was prepared using 1×Kinase buffer.
(7) A mixed solution of 15 μL of ATP with a final concentration of 5/3 times and a substrate was added for initial reaction.
(8) The 384-well-plate was centrifuged at 1000 rpm for 30 seconds, shaken and mixed well, and incubated at a room temperature for 60 minutes.
(9) 30 μL of a termination detection solution was added to stop the kinase reaction. Centrifugation was conducted at 1000 rpm for 30 seconds. Shaking and mixing well were conducted.
(10) The conversion rate was read using Caliper EZ Reader.
where Conversion %_sample is the conversion rate reading of the sample; Conversion %_min: the average value of negative control wells, representing the conversion rate reading of wells without enzyme activity; Conversion %_max: the average value of positive control wells, representing the conversion rate reading of wells without compound inhibition; % Inhibition represents the inhibition rate.
Fitting of Dose-Response Curve
Using the log value of concentration as the X-axis and the percentage inhibition rate as the Y-axis, the dose-response curve was fitted using the log(inhibitor) vs. response —Variable slope of the analysis software GraphPad Prism 5 to obtain the IC50 value of each compound on enzyme activity.

[2] = system: BaF3-EGFR^L858R/T790M/C797S cells; experiment: BaF3 cell proliferation inhibition experiment (CCK-8); type: cell-based; conditions: Ba/F3 EGFR-L858R, 72 hours
Text: BaF3 cell proliferation inhibition experiment: The compounds of the present invention have excellent inhibitory activity against the proliferation of BaF3-EGFR^L858R/T790M/C797S cells
(§1) A. Cell line: BaF3 cells with stable overexpression of wild-type genes are named BaF3-EGFR^WT, and BaF3 cells with stable overexpression of EGFR^L858R/T790M/C797S EGFR^del19/T790M/C797S EGFR^L858R/C797S and EGFR^del19/C797S mutant genes are named BaF3-EGFR^L858R/T790M/C797S BaF3-EGFR^del19/T790M/C797S BaF3-EGFR^L858R/C797S and BaF3-EGFR^del19/C797S cells, respectively. Mediums:
(§2) a) The medium was preheated in a 37° C. water bath.
(§3) b) The cryopreservation tube was taken from the liquid nitrogen tank, quickly placed in a 37° C. water bath, and melted completely within 1 minute.
(§4) c) The cell suspension was transferred to a 15 mL centrifuge tube containing a 10 mL medium and centrifuged at 1000 rpm for 4 minutes.
(§5) d) The supernatant was discarded, the cells were resuspended in a 1 mL medium and transferred to a […] culture dish containing a 10 mL medium, 20% serum and 50 ng/mL EGF were administered to the first-generation medium, and culture was conducted in a 37° C. and 5% CO2 incubator.
(§6) b) The cells in the culture dish were blown evenly with a 5 mL pipette, and 500 μL of the cells were pipetted out to be inoculated into a new […] culture dish and cultured in a 37° C. and 5% CO2 incubator.
(§7) a) The compound to be tested (10 mM stock solution) was diluted with 100% DMSO to 1 mM, and diluted with a culture solution in a 24-well plate to prepare of a working solution of 2 μM concentration.
(§8) b) The 2 μM working solution was diluted with a triple dilution method to obtain working solutions with approximate concentrations of 2 μM, 600 nM, 200 nM, 60 nM, and 20 nM.
(§9) a) The cells at the logarithmic growth phase were centrifuged at 1000 rpm for 4 minutes, resuspended with a medium (containing 10% serum and 50 ng/mL EGF), and counted.
(§10) b) The cells were inoculated into a 96-well plate with a cell density of 4000 cells/well, and placed in a 37° C. and 5% CO2 incubator for culture for 12 hours.
(§11) a) The prepared compound was added to a 96-well plate, with 100 μL per well. The final concentrations were 1 μM, 300 nM, 100 nM, 30 nM, 10 nM, and 0 nM, and the final concentration of DMSO was 0.2%. A medium served as a blank control.
(§12) b) The cells were placed in 37° C. and 5% CO2 incubator for culture for 72 hours.
(§13) (5) Cell Viability Testing
(§14) a) The 96-well cell culture plate was taken out, and 20 μL of a CCK-8 reagent (Cell Counting Kit-8, Topscience, Catalog No. C0005) was added in the dark.
(§15) b) Mixing well was conducted on a horizontal shaking table at a room temperature at 100 rpm for 5 minutes.
(§16) c) The culture plate was placed in a 37° C. constant-temperature incubator for incubation.
d) Starting from the addition of the CCK-8, the absorbance at 450 nm was read using the TECAN microplate reader at 1 hour, 2 hours, and 3 hours, respectively.
(§17) The data was analyzed using GraphPad Prism 8.0 software to obtain a fitted curve of activity of the compounds. The IC50 of the compounds was fitted from nonlinear regression equation.

A431 cells = experiment: A431 cell proliferation inhibition (SRB); type: cell-based; conditions: Homo sapiens, A-431, wild-type EGFR, 72 hours
Protocol: A431 cell proliferation inhibition: The compounds of the present invention have good selectivity to wild-type EGFR
as §2, §3, §4, §5, §6, §7, §8, §9, §10, §11, §12, §13
a) The cell supernatant was discarded, rinsed once with 1×PBS, and fixed with 10% trichloroacetic acid for 1 hour. The trichloroacetic acid was discarded, excess trichloroacetic acid was washed off with tap water, and the 96-well plate was dried in a 60° C. oven.
b) 70 μL of an SRB stain was added to each well of the dry 96-well plate for staining at a room temperature for 30 minutes. Excess SRB stain was washed off with 1% glacial acetic acid, and the 96-well plate was dried in a 60° C. oven.
c) SRB was dissolved with 100 μL of 10 mM Tris-base solution. The absorbance was detected at 540 nm ultraviolet absorption using the microplate reader. The data was analyzed.
as §17

[3] = Detection of oral plasma exposure in rats; type: in vivo; conditions: rat, SD rats, p.o. 10 mg/kg
Protocol: Detection of oral plasma exposure in rats: The compounds of the present invention have good oral in-vivo exposure in rats
After a single dose of 10 mg/kg oral administration of the compound to be tested in SD rats, blood samples were collected at different time points.
Standard curve and quality control sample preparation processing: The mixed reserve solution of the compound to be tested was taken and diluted with 50% methanol water into standard working solutions containing respective compounds with concentrations of 20, 40, 100, 200, 400, 1000, 2000, 4000, 10000, and 20000 ng/mL, as well as 60, 600, and 16000 ng/mL quality control working solutions. […] of a blank matrix was taken. […] of the standard curve working solutions and the quality control working solutions were added to prepare standard curves containing respective compounds with concentrations of 1.00, 2.00, 5.00, 10.00, 20.00, 50.00, 100.00, 200.00, 500.00, and 1000.00 ng/mL, as well as quality control samples with concentrations of 3.00, 30.00, and 800.00 ng/mL, respectively. 400 μL of acetonitrile (containing internal standard Verpmil of 2 ng/mL) was added. After vortex oscillation at 700 rcf for 10 minutes, centrifugation was conducted at 3300 rcf at 4° C. for 10 minutes. The supernatant was taken for LC-MS/MS analysis.
Unknown sample preparation processing: 50 μL of the sample to be tested was taken. 400 μL of acetonitrile (containing internal standard Verpmil of 2 ng/mL) was added. After vortex oscillation at 700 rcf for 10 minutes, centrifugation was conducted at 3300 rcf and 4° C. for 10 minutes. The supernatant was taken for LC-MS/MS analysis.

BaF3-EGFR^WT cells = experiment: BaF3 cell proliferation inhibition experiment (CCK-8); type: cell-based; conditions: Mus musculus, BaF3; cell proliferation, 72 hours; read-out: BaF3-EGFR^WT (IC50 nM)
Protocol: as §1, §2, §3, §4, §5, §6, §7, §8, §9, §10, §11, §12, §13, §14, §15, §16, §17

[4] = system: BaF3-EGFR^del19/T790M/C797S cells; experiment: as above; type: cell-based; conditions: Ba/F3 EGFR-Del19/T790M/C797S; cell proliferation, 72 hours; read-out: BaF3-EGFR^del19 /T790M/C797S (IC50 nM)
Protocol: as §1, §2, §3, §4, §5, §6, §7, §8, §9, §10, §11, §12, §13, §14, §15, §16, §17

Sequence of EGFR^L858R/T790M/C797S kinase (P00533 25-1210 T790M/C797S/L858R): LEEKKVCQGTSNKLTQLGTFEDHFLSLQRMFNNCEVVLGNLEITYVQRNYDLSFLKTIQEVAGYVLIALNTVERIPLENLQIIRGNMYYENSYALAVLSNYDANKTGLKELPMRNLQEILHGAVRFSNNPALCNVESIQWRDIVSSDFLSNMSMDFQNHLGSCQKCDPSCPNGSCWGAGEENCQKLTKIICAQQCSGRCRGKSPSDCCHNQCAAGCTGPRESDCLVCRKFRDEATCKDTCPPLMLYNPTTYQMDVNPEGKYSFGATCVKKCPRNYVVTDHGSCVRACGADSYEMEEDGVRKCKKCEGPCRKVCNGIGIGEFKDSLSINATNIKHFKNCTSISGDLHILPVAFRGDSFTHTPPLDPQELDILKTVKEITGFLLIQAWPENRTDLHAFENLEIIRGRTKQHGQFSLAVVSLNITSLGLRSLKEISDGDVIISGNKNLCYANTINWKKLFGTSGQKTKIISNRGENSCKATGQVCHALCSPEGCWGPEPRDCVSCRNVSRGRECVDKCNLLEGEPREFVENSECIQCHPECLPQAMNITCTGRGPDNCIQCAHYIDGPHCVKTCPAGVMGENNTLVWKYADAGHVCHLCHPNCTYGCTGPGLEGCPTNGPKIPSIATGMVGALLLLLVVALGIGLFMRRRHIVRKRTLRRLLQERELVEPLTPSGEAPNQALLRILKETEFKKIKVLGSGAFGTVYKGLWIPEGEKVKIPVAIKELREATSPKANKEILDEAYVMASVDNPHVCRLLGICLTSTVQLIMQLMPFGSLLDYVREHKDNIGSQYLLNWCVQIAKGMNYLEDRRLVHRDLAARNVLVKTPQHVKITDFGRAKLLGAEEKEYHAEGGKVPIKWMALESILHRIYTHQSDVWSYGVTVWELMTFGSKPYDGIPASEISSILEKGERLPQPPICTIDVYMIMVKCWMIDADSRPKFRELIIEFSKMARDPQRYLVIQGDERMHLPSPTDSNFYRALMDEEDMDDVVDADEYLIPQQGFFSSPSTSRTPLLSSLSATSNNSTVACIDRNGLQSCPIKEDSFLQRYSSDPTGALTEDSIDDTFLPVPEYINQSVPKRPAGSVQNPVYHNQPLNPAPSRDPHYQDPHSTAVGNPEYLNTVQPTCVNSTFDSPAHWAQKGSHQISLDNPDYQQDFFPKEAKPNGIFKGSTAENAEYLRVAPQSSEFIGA

Compound | pIC50 [1] | pIC50 [2] | pIC50 (A431 cells) | Cmax [3] [ng/mL] | IC50 (BaF3-EGFR^WT cells) [nM] | IC50 [4] [nM]
COc1cc(N2CCC(N3CCN(C)CC3)CC2)c(C)cc1Nc1ncc(Cl)c(Nc2cc(C)c(C)cc2P(C)(C)=O)n1 [Compound 12, (2-((5-Chloro-2-((2-methoxy-5-methyl-4-(4-(4-methylpiperazin-1-yl)piperidin-1-yl)phenyl)amino)pyrimidin-4-yl)amino)-4,5-dimethylphenyl)dimethylphosphine oxide] | 8.28 | 7.35 | < 6.30 | 1190 |  | 
CCc1cc(Nc2ncc(Cl)c(Nc3cc(C(F)(F)F)ccc3P(C)(C)=O)n2)c(OC)cc1N1CCC2(CC1)CC(N(C)C)C2 [Compound 8, (2-((5-Chloro-2-((4-(2-(dimethylamino)-7-azaspiro[3.5]nonan-7-yl)-5-ethyl-2-methoxypheny 1)amino)pyrimidin-4-yl)amino)-4-(trifluoromethyl)phenyl)dimethylphosphine oxide] | 7.54 | 6.58 | < 6.00 |  |  | 
COc1cc(N2CCC3(CC2)CC(N(C)C)C3)c(F)cc1Nc1ncc(Cl)c(Nc2cc(C)c(C)cc2P(C)(C)=O)n1 [Compound 16, (2-((5-chloro-2-((4-(2-(dimethylamino)-7-azaspiro[3.5]nonan-7-yl)-5-fluoro-2-methoxypheny 1)amino)pyrimidin-4-yl)amino)-4,5-dimethylphenyl)dimethylphosphine oxide] | 7.92 | 7.45 | < 6.30 |  |  | 
COc1cc(N2CCC3(CC2)CC(N(C)C)C3)c(Cl)cc1Nc1ncc(Cl)c(Nc2cc(C)c(C)cc2P(C)(C)=O)n1 [Compound 13, (2-((5-Chloro-2-((5-chloro-4-(2-(dimethylamino)-7-azaspiro[3.5]nonan-7-yl)-2-methoxyphenyl)amino)pyrimidin-4-yl)amino)-4,5-dimethylphenyl)dimethylphosphine oxide] | 9.05 | 7.42 | < 6.30 |  |  | 

More lines, now with the values ahead:

pIC50 [1] | pIC50 [2] | pIC50 (A431 cells) | Cmax [3] [ng/mL] | IC50 (BaF3-EGFR^WT cells) [nM] | IC50 [4] [nM] | Compound
10.15 |  |  |  | 942 | 186 | CCc1cc(Nc2ncc(Cl)c(Nc3cc(C)c(C)cc3P(C)(C)=O)n2)c(OC)cc1N1CCC(N2C[C@@H](C)N(C)[C@@H](C)C2)CC1 [Compound 50, (2-((5-chloro-2-((5-ethyl-2-methoxy-4-(4-((3S,5R)-3,4,5-trimethylpiperazin-1-yl)piperidin-1-yl)phenyl)amino)pyrimidin-4-yl)amino)-4,5-dimethylphenyl)dimethylphosphine oxide]
10.20 |  |  |  | 634 | 176 | CCc1cc(Nc2ncc(Cl)c(Nc3ccc(C)c(C)c3P(C)(C)=O)n2)c(OC)cc1N1CCC2(CC1)CC(N1CCCC1)C2 [Compound 48, (6-((5-chloro-2-((5-ethyl-2-methoxy-4-(2-(pyrrolidin-1-yl)-7-azaspiro[3.5]nonan-7-yl)phenyl)amino)pyrimidin-4-yl)amino)-2,3-dimethylphenyl)dimethylphosphine oxide]
10.43 | 6.63 | 6.22 |  | 353 | 92.8 | CCc1cc(Nc2ncc(Cl)c(Nc3ccc(C)c(C)c3P(C)(C)=O)n2)c(OC)cc1N1CCC(N2C[C@H]3CN(C)C[C@H]3C2)CC1 [Compound 52, (6-((5-Chloro-2-((5-ethyl-2-methoxy-4-(4-((3aR,6aS)-5-methyloctahydropyrrol[3,4-C]pyrrol-2(1H)-yl)piperidin-1-yl)phenyl)amino)pyrimidin-4-yl)amino)-2,3-dimethylphenyl)dimethylphosphine oxide]
9.04 | 7.26 | 6.02 |  |  |  | COc1cc(N2CC3(CCN(C)CC3)C2)c(C)cc1Nc1ncc(Cl)c(Nc2ccc(C)c(C)c2P(C)(C)=O)n1 [Compound 32]
